In patent US11478466B2, “Small molecule promoting osteoblast differentiation” (Cornell University, priority 2019, dated 2022):
Like-named read-outs stand apart in the source and are kept apart here.

Legend:
[1] = system: alkaline phosphatase (ALP); details: for RFU Score (10 μM): 154-analog library, C2C12, duplicate; for RFU Score Threshold ≥ 800 / Fluorescence Z Score Threshold ≥ 10 / NPA Score Threshold ≥ 5.0 (normalized percent activation): primary screen, C2C12, 4 days; for RFU Score (10 μM) / RFU Score Threshold ≥ 800 / Fluorescence Z Score Threshold ≥ 10 / NPA Score Threshold ≥ 5.0 (normalized percent activation): 10 μM; for RFU Score Threshold ≥ 800: Ex 450/Em 580 nm, rank in brackets not taken; for Fluorescence Z Score Threshold ≥ 10: Z score on DMSO control wells; for NPA Score Threshold ≥ 5.0 (normalized percent activation): normalized against rhBMP4 positive and DMSO negative controls
[2] = system: alkaline phosphatase (ALP); experiment: cells; details: Mus musculus; for activation at 10 µM: C2C12, 96 h
[3] = read-out: NPA Score Threshold ≥ 5.0 (normalized percent activation)

Structure (SMILES)	RFU Score (10 μM) [1]	activation at 10 µM [2] [%]	other results
c1ccc(-c2nc[nH]c2-c2cccc(CN3CCOCC3)c2)cc1 [RU-0232369]	294	0.43	
O=C(c1[nH]cnc1-c1ccccc1)N1CCCC(Nc2ccc(F)cc2)C1 (stereo not drawn) [RU-0236307]	473	6.76	
Cc1cc(C)n(CC(C)Nc2nc(-c3ccncc3)nc3c2CNC3)n1 (stereo not drawn) [RU-0236897]			RFU Score Threshold ≥ 800 [1]: Below Threshold; Fluorescence Z Score Threshold ≥ 10 [1]: Below Threshold; activation at 10 µM [2, 3]: 5.32%
CCc1ncc2c(n1)CN(C(=O)c1[nH]cnc1-c1ccccc1)C2 [RU-0237095]	453	6.04	
COc1ccc(-c2n[nH]cc2-c2[nH]cnc2-c2ccccc2)cc1 [RU-0237450]	466	6.49	
CCc1cnc(C)nc1N1CCCC(Cc2cccnc2)C1 (stereo not drawn) [RU-0238003, 5-ethyl-2-methyl-4-[3-(pyridin-3-ylmethyl)piperidin-1-yl]pyrimidine]			RFU Score Threshold ≥ 800 [1]: 1340 (3); Fluorescence Z Score Threshold ≥ 10 [1]: 36.44 (3); NPA Score Threshold ≥ 5.0 (normalized percent activation) [1]: Below Threshold; EC50 ([2]; C2C12, read-out: Measured EC50): > 40 µM
Cc1ccc(-n2cc(CN3CCCC(Cn4ccnc4C)C3)cn2)cc1C (stereo not drawn) [RU-0238394]			RFU Score Threshold ≥ 800 [1]: 914 (15); Fluorescence Z Score Threshold ≥ 10 [1]: 12.45 (19); activation at 10 µM [2, 3]: 5.54%
Cc1cc(C)c2[nH]c(=O)c(CN3CCN4CCN(C)CC4C3)cc2c1 (stereo not drawn) [RU-0238998]	469	6.62	
COc1cc(OC)c(-c2[nH]cnc2-c2ccccc2)c(OC)c1 [RU-0239439]	472	6.72	
Cc1nc2cc(-c3cccc4ccnn34)ccc2s1 [RU-0239646]			RFU Score Threshold ≥ 800 [1]: Below Threshold; Fluorescence Z Score Threshold ≥ 10 [1]: Below Threshold; activation at 10 µM [2, 3]: 5.22%
CCCC(C)c1nnc(NC(=O)c2ccccc2-n2cncn2)s1 (stereo not drawn) [RU-0242581]			RFU Score Threshold ≥ 800 [1]: 849 (24); Fluorescence Z Score Threshold ≥ 10 [1]: Below Threshold; activation at 10 µM [2, 3]: 5.51%
CN(C)CCNc1cc(-c2ccc(Cl)cc2F)c2cc[nH]c2n1 [RU-0242925]			RFU Score Threshold ≥ 800 [1]: Below Threshold; Fluorescence Z Score Threshold ≥ 10 [1]: Below Threshold; activation at 10 µM [2, 3]: 5.73%
Cc1nc2cc(C(=O)N3CCNC(=O)C3)ccc2s1 [RU-0243566]			RFU Score Threshold ≥ 800 [1]: Below Threshold; Fluorescence Z Score Threshold ≥ 10 [1]: Below Threshold; activation at 10 µM [2, 3]: 5.55%
CN1CC2(CCCN(C(=O)c3[nH]cnc3-c3ccccc3)CC2)OC1=O (stereo not drawn) [RU-0245926]	558	9.73	
COc1cccc(-c2[nH]cnc2-c2ccccc2)c1OCCN(C)C [RU-0247047]	558	9.73	
C=CCc1cc(-c2[nH]cnc2-c2ccccc2)cc(OC)c1O [RU-0248392]	423	4.98	
CN(C)CC1(O)CCN(C(=O)c2[nH]cnc2-c2ccccc2)C1 (stereo not drawn) [RU-0248829]	325	1.52	
c1ccc(-c2nc[nH]c2-c2ccccc2OCCCN2CCOCC2)cc1 [RU-0248967]	512	7.58	
CN1CCC(Cc2noc(-c3[nH]cnc3-c3ccccc3)n2)CC1 [RU-0249023]	293	0.4	
c1ccc(-c2nc[nH]c2-c2ccc(OCCn3ccnc3)cc2)cc1 [RU-0249817]	561	9.84	

Structure (SMILES)	RFU Score (10 μM) [1]	activation at 10 µM [2] [%]	other results
O=C(CCc1n[nH]c2c1CCCC2)N1CCC2(CCCO2)CC1 [RU-0250369]			RFU Score Threshold ≥ 800 [1]: Below Threshold; Fluorescence Z Score Threshold ≥ 10 [1]: Below Threshold; activation at 10 µM [2, 3]: 5.46%
O=C(NC1CC(=O)N(CCc2ccccc2)C1)c1[nH]cnc1-c1ccccc1 (stereo not drawn) [RU-0252250]	533	8.85	
CN1CC2(CCN(C(=O)c3[nH]cnc3-c3ccccc3)C2)OC1=O (stereo not drawn) [RU-0253075]	500	7.71	
Cc1cc(C)c2[nH]c(=O)c(-c3nccn3CCc3cn[nH]c3)cc2c1 [RU-0253216]	341	2.09	
CCN1CCN(CCOc2ccccc2-c2[nH]cnc2-c2ccccc2)CC1 [RU-0253941]	547	9.34	
c1cc2c(cc1NC1CCCNC1)OCCO2 (stereo not drawn) [RU-0256394]			RFU Score Threshold ≥ 800 [1]: Below Threshold; Fluorescence Z Score Threshold ≥ 10 [1]: Below Threshold; activation at 10 µM [2, 3]: 5.87%
Cc1cc(C)c2[nH]c(=O)c(CN(C)Cc3c(C)noc3C)cc2c1 [RU-0259020]	514	8.18	
CN(C)CC1(O)CCCN(S(=O)(=O)c2ccc(-c3ccccc3)cc2)CC1 (stereo not drawn) [RU-0259574]			RFU Score Threshold ≥ 800 [1]: 903 (16); Fluorescence Z Score Threshold ≥ 10 [1]: Below Threshold; activation at 10 µM [2, 3]: 9.87%
CC(=O)Nc1ccc2nc(-c3[nH]cnc3-c3ccccc3)ccc2c1 [RU-0260066]	456	6.14	
O=C(c1[nH]cnc1-c1ccccc1)N1CCOC(c2ccc(Cl)cc2)C1 (stereo not drawn) [RU-0261164]	544	9.24	
c1ccc2c(N3CCN(Cc4cc5n(n4)CCCNC5)CC3)nsc2c1 [RU-0261349]			RFU Score Threshold ≥ 800 [1]: 884 (18); Fluorescence Z Score Threshold ≥ 10 [1]: 11.32 (22); activation at 10 µM [2, 3]: 5.04%
CCC(c1cccnc1)N(C)Cc1cc2cc(C)cc(C)c2[nH]c1=O (stereo not drawn) [RU-0261450]	538	9.03	
O=C(N[C@H]1CC[C@H](n2cnnc2)CC1)c1[nH]cnc1-c1ccccc1 [RU-0261757]	508	7.99	
COc1ccc(-c2[nH]nnc2-c2ccccc2)cc1Cn1cncn1 [RU-0262240]	496	7.55	
CN1CCC(Cc2noc(CCC(=O)c3ccccc3)n2)CC1 [RU-0262489]			RFU Score Threshold ≥ 800 [1]: Below Threshold; Fluorescence Z Score Threshold ≥ 10 [1]: Below Threshold; activation at 10 µM [2, 3]: 5.43%
O=C1NCC2(CCCN(C(=O)c3[nH]cnc3-c3ccccc3)C2)O1 (stereo not drawn) [RU-0264094]	583	10.6	
COc1cccc(-c2[nH]cnc2-c2ccccc2)c1OCCn1ccnc1 [RU-0265092]	478	6.93	
Cc1cc(C)c2[nH]c(=O)c(-c3c(-c4ccccc4)ncn3C3CCNC3)cc2c1 (stereo not drawn) [RU-0266582]			Fluo. Z Score ([1]; SAR of library and proprietary analogs, AttoPhos assay, C2C12): 0.48 ± 1.10; EC50 ([2]; C2C12): 1.42 µM
Cc1cc(C)c2[nH]c(=O)c(CN3CCOC4(CNCCOC4)C3)cc2c1 (stereo not drawn) [RU-0267267]	557	9.71	
C=CCN(Cc1ccc(F)cc1)C(=O)c1c[nH]c2c(C)cccc2c1=O [RU-0268068]			RFU Score Threshold ≥ 800 [1]: Below Threshold; Fluorescence Z Score Threshold ≥ 10 [1]: Below Threshold; activation at 10 µM [2, 3]: 5.81%

Structure (SMILES)	RFU Score (10 μM) [1]	activation at 10 µM [2] [%]	other results
O=C(c1[nH]cnc1-c1ccccc1)N1C[C@H](O)[C@@H](N2CCOCC2)C1 [RU-0268325]	339	2.04	
CCOC(=O)N1CCC(Nc2ncnc3ccsc23)CC1 [RU-0269711, ethyl 4-(thieno[2,3-e]pyrimidin-4-ylamino)piperidine-1-carboxylate]			RFU Score Threshold ≥ 800 [1]: 1070 (7); Fluorescence Z Score Threshold ≥ 10 [1]: 14.73 (15); NPA Score Threshold ≥ 5.0 (normalized percent activation) [1]: Below Threshold; EC50 ([2]; C2C12, read-out: Measured EC50): 28.3 µM
CN(C)CC1(O)CCCN(C(=O)c2[nH]cnc2-c2ccccc2)C1 (stereo not drawn) [RU-0424441]	368	3.04	
CN1CCN(C(=O)c2[nH]cnc2-c2ccccc2)CC1C(=O)O (stereo not drawn) [RU-0424442]	287	0.18	
CCOc1cccc(-c2[nH]cnc2-c2ccccc2)c1OCC(=O)O [RU-0424443]	306	0.87	
Cc1cc(C)c2[nH]c(=O)c(CN(C)CCc3scnc3C)cc2c1 [RU-0424444]	446	5.79	
Cc1ccc2[nH]c(C(=O)O)c(-c3[nH]cnc3-c3ccccc3)c2c1 [RU-0424445]	364	4.67	
O=C(c1[nH]cnc1-c1ccccc1)N1CCc2onc(-c3ccccc3)c2C1 [RU-0424446]	325	1.54	
Cc1cc(C)c2[nH]c(=O)c(CN(C)Cc3nc(-c4cccnc4)no3)cc2c1 [RU-0424447]	297	0.54	
Cc1cc(C)c2[nH]c(=O)c(CN3C[C@@H](C)O[C@@H](C)C3)cc2c1 [RU-0424448]	253	-1	
Cc1cc(C)c2[nH]c(=O)c(CN3CCC(c4nncn4C)CC3)cc2c1 [RU-0424449]	284	0.1	
Cc1nn(C)c(N2CCOCC2)c1-c1[nH]cnc1-c1ccccc1 [RU-0424450]	288	0.24	
Cc1cc(C)c2[nH]c(=O)c(CN(Cc3nccn3C)C3CC3)cc2c1 [RU-0424451]	305	0.82	
Cc1cc(C)c2[nH]c(=O)c(CN3CCC(CN)C3)cc2c1 (stereo not drawn) [RU-0424452]	328	1.65	
O=C(c1[nH]cnc1-c1ccccc1)N1CC(c2cccnc2)C1 [RU-0424453]	323	1.46	
O=C(c1[nH]cnc1-c1ccccc1)N1CCN2C(=O)OCC2C1 (stereo not drawn) [RU-0424454]	333	1.83	
O=C(c1[nH]cnc1-c1ccccc1)N1CCc2[nH]nc(-c3ccccc3)c2C1 [RU-0424455]	347	2.3	
Cc1cc(C)c2[nH]c(=O)c(CN3CCC(Oc4ncccn4)CC3)cc2c1 [RU-0424456]	310	0.99	
